The values that follow come from ChEMBL document CHEMBL5579867, “Ligand-Based Pharmacophoric Design and Anti-inflammatory Evaluation of Triazole Linked Semisynthetic Labdane Conjugates” (ACS Med Chem Lett, 2024).

The test system of data set [1] is RAW264.7. As to the kind of experiment: Cytotoxicity against mouse RAW264.7 cells assessed as reduction in cell viability at 1 to 20 uM incubated for 24 hrs by MTT assay. It is filed as toxicity, cell-based. Conditions: raw264.7, 24 h, dose 1-20 µM. (Tetrazolium assays rely on reduction of a dye to a coloured formazan, in cell work by metabolically active cells.)

The subject of data set [2] is RAW264.7. As to the kind of experiment: Antiinflammatory activity in LPS-induced mouse RAW264.7 cells assessed as inhibition of IL-6 production at 20 uM pretreated for 1 hr followed by LPS stimulation and measured after 24 hrs by ELISA. Conditions: time 25.0 hrs. Format: functional, cell-based. On the technique in general: An ELISA detects its analyte on a solid surface through an enzyme-linked reagent.

Data set [3] concerns RAW264.7. As to the kind of experiment: Antiinflammatory activity in LPS-induced mouse RAW264.7 cells assessed as inhibition of TNF-alpha production at 20 uM pretreated for 1 hr followed by LPS stimulation and measured after 24 hrs by ELISA. Format: functional, cell-based. Conditions: time 25.0 hrs.
For data set [4], the system named is RAW264.7. As to the kind of experiment: Antiinflammatory activity in LPS-induced mouse RAW264.7 cells assessed as inhibition of NO production at 1 to 20 uM pretreated for 1 hr followed by LPS stimulation and measured after 23 hrs by Griess method. It is filed as functional, cell-based. Conditions: dose 1-20 µM, time 24.0 hrs. A general note: The Griess reaction detects nitrite, a stable product of nitric oxide.

Calls of active or inactive are those of the source. The rule behind the calls is not given here.

As to `C=C1CC[C@H]2C(C)(C)CCC[C@]2(C)[C@H]1C/C=C(/C=O)CC(=O)OCc1cn(CCCCN2C(=O)C(=O)c3cc(OC)ccc32)nn1`, the Activity entry with RAW264.7 [1] is “Non-Toxic”. The outcome in the data set on RAW264.7 [2] and with RAW264.7 [3] was Active.
For `C=C1CC[C@H]2C(C)(C)CCC[C@]2(C)[C@H]1C/C=C(\CC(=O)O)C(=O)O`, in the data set on RAW264.7 [1], the Activity result is “Non-Toxic”. Besides, the outcome with RAW264.7 [2] and in the data set with RAW264.7 [3] was Active.
As for `C=C1CC[C@H]2C(C)(C)CCC[C@]2(C)[C@H]1C/C=C(/C=O)CC(=O)OCc1cn(CCCN2C(=O)C(=O)c3cc(I)ccc32)nn1`, the Activity entry in the data set with RAW264.7 [1] was “Non-Toxic”. For the same compound, the outcome with RAW264.7 [2] and in the data set on RAW264.7 [3] was Active.
For the compound `C=C1CC[C@H]2C(C)(C)CCC[C@]2(C)[C@H]1C/C=C(/C=O)CC(=O)OCc1cn(CCCN2C(=O)C(=O)c3cc(Cl)ccc32)nn1`, in the data set with RAW264.7 [1], the Activity result is reported as “Non-Toxic”. For the same compound, the outcome in the data set with RAW264.7 [2] and in the data set on RAW264.7 [3] was Active.
Regarding `C=C1CC[C@H]2C(C)(C)CCC[C@]2(C)[C@H]1C/C=C(/C=O)CC(=O)OCc1cn(CCCN2C(=O)C(=O)c3ccccc32)nn1`, in the data set on RAW264.7 [1], the Activity result is given as “Non-Toxic”. For the same compound, the result with RAW264.7 [2] and in the data set on RAW264.7 [3] was Active. Further, the outcome with RAW264.7 [4] was inactive.
For the compound `C=C1CC[C@H]2C(C)(C)CCC[C@]2(C)[C@H]1C/C=C(/C=O)CC(=O)OCc1cn(CCCN2C(=O)C(=O)c3cc(OC(F)(F)F)ccc32)nn1`, the Activity result with RAW264.7 [1] is given as “Non-Toxic”. Also, the result in the data set on RAW264.7 [2] and in the data set with RAW264.7 [3] was Active.
`C=C1CC[C@H]2C(C)(C)CCC[C@]2(C)[C@H]1C/C=C(\CC(=O)OCc1cn(CCCN2C(=O)C(=O)c3cc(OC)ccc32)nn1)C(=O)OCc1cn(CCCN2C(=O)C(=O)c3cc(OC)ccc32)nn1`: the Activity entry in the data set with RAW264.7 [1] is recorded as “Non-Toxic”. Moreover, the outcome in the data set with RAW264.7 [2] and with RAW264.7 [3] was Active.
Turning to `C=C1CC[C@H]2C(C)(C)CCC[C@]2(C)[C@H]1C/C=C(\CC(=O)OCc1cn(CCN2C(=O)C(=O)c3cc(Cl)ccc32)nn1)C(=O)OCc1cn(CCN2C(=O)C(=O)c3cc(Cl)ccc32)nn1`, the Activity result with RAW264.7 [1] was “Non-Toxic”. Moreover, the result in the data set on RAW264.7 [2] and in the data set on RAW264.7 [3] was Active.
As for `C=C1CC[C@H]2C(C)(C)CCC[C@]2(C)[C@H]1C/C=C(\CC(=O)OCc1cn(CCN2C(=O)C(=O)c3cc(F)ccc32)nn1)C(=O)OCc1cn(CCN2C(=O)C(=O)c3cc(F)ccc32)nn1`, in the data set with RAW264.7 [1], the Activity entry is on record as “Non-Toxic”. Further, the outcome in the data set on RAW264.7 [2] and in the data set on RAW264.7 [3] was Active.
With `C=C1CC[C@H]2C(C)(C)CCC[C@]2(C)[C@H]1C/C=C(/C=O)CC(=O)OCc1cn(CCN2C(=O)C(=O)c3cc(OC(F)(F)F)ccc32)nn1`, the Activity entry in the data set on RAW264.7 [1] was “Non-Toxic”. Besides, the outcome with RAW264.7 [2], with RAW264.7 [3] and in the data set on RAW264.7 [4] was Active.
For the compound `C=C1CC[C@H]2C(C)(C)CCC[C@]2(C)[C@H]1C/C=C(/C=O)CC(=O)OCc1cn(CCCN2C(=O)C(=O)c3cc(OC)ccc32)nn1`, in the data set with RAW264.7 [1], the Activity result is listed as “Non-Toxic”. In addition, the result with RAW264.7 [2] and in the data set on RAW264.7 [3] was Active.
Consider `C=C1CC[C@H]2C(C)(C)CCC[C@]2(C)[C@H]1C/C=C(\CC(=O)OCc1cn(CCCN2C(=O)C(=O)c3cc(Cl)ccc32)nn1)C(=O)OCc1cn(CCCN2C(=O)C(=O)c3cc(Cl)ccc32)nn1`, for which the Activity result with RAW264.7 [1] was “Non-Toxic”. Besides, the outcome in the data set with RAW264.7 [2] and with RAW264.7 [3] was Active.
Take `C=C1CC[C@H]2C(C)(C)CCC[C@]2(C)[C@H]1C/C=C(/C=O)CC(=O)OCc1cn(CCN2C(=O)C(=O)c3cc(C)ccc32)nn1`: in the data set with RAW264.7 [1], the Activity result is “Non-Toxic”. Also, the result in the data set on RAW264.7 [2] and in the data set on RAW264.7 [3] was Active.
In the case of `C=C1CC[C@H]2C(C)(C)CCC[C@]2(C)[C@H]1C/C=C(/C=O)CC(=O)OCc1cn(CCCCN2C(=O)C(=O)c3cc(Cl)ccc32)nn1`, the Activity result with RAW264.7 [1] is given as “Non-Toxic”. Also, the outcome in the data set with RAW264.7 [2] and with RAW264.7 [3] was Active.
Take `C=C1CC[C@H]2C(C)(C)CCC[C@]2(C)[C@H]1C/C=C(/C=O)CC(=O)OCc1cn(CCN2C(=O)C(=O)c3cc(Br)ccc32)nn1`: in the data set on RAW264.7 [1], the Activity result is “Non-Toxic”. Further, the result with RAW264.7 [2] and in the data set with RAW264.7 [3] was Active. Further, in the data set on RAW264.7 [4], the outcome was inactive.
`C=C1CC[C@H]2C(C)(C)CCC[C@]2(C)[C@H]1C/C=C(/C=O)CC(=O)OCc1cn(CCCCN2C(=O)C(=O)c3cc(OC(F)(F)F)ccc32)nn1`: the Activity entry in the data set on RAW264.7 [1] is on record as “Non-Toxic”. For the same compound, the result with RAW264.7 [2] and with RAW264.7 [3] was Active.
As to `C=C1CC[C@H]2C(C)(C)CCC[C@]2(C)[C@H]1C/C=C(/C=O)CC(=O)OCc1cn(CCCN2C(=O)C(=O)c3cc(Br)ccc32)nn1`, the Activity result in the data set on RAW264.7 [1] is reported as “Non-Toxic”. Also, the result in the data set with RAW264.7 [2] and in the data set with RAW264.7 [3] was Active.
On to `C=C1CC[C@H]2C(C)(C)CCC[C@]2(C)[C@H]1C/C=C(/C=O)CC(=O)OCc1cn(CCN2C(=O)C(=O)c3cc(OC)ccc32)nn1`, for which, in the data set on RAW264.7 [1], the Activity entry is given as “Non-Toxic”. Besides, the result with RAW264.7 [2] and in the data set with RAW264.7 [3] was Active.
`C=C1CC[C@H]2C(C)(C)CCC[C@]2(C)[C@H]1C/C=C(/C=O)CC(=O)OCc1cn(CCCCN2C(=O)C(=O)c3cc(I)ccc32)nn1`: the Activity result in the data set with RAW264.7 [1] is given as “Non-Toxic”. Moreover, the result in the data set on RAW264.7 [2] and in the data set with RAW264.7 [3] was Active.
Regarding `C=C1CC[C@H]2C(C)(C)CCC[C@]2(C)[C@H]1C/C=C(/C=O)CC(=O)OCc1cn(CCCCN2C(=O)C(=O)c3ccccc32)nn1`, the Activity entry with RAW264.7 [1] is “Non-Toxic”. Moreover, the outcome with RAW264.7 [2] and in the data set on RAW264.7 [3] was Active. The outcome in the data set on RAW264.7 [4] was inactive.
As for `C=C1CC[C@H]2C(C)(C)CCC[C@]2(C)[C@H]1C/C=C(\CC(=O)OCc1cn(CCN2C(=O)C(=O)c3ccccc32)nn1)C(=O)OCc1cn(CCN2C(=O)C(=O)c3ccccc32)nn1`, in the data set with RAW264.7 [1], the Activity result is “Non-Toxic”. For the same compound, the outcome in the data set with RAW264.7 [2], with RAW264.7 [3] and with RAW264.7 [4] was Active.
Turning to `C=C1CC[C@H]2C(C)(C)CCC[C@]2(C)[C@H]1C/C=C(/C=O)CC(=O)OCc1cn(CCCN2C(=O)C(=O)c3cc(C)ccc32)nn1`, the Activity entry in the data set on RAW264.7 [1] is listed as “Non-Toxic”. Besides, the result in the data set with RAW264.7 [2] and in the data set with RAW264.7 [3] was Active.
For the compound `C=C1CC[C@H]2C(C)(C)CCC[C@]2(C)[C@H]1C/C=C(/C=O)CC(=O)OCc1cn(CCCCN2C(=O)C(=O)c3cc(C)ccc32)nn1`, in the data set on RAW264.7 [1], the Activity result was “Non-Toxic”. Further, the result with RAW264.7 [2], with RAW264.7 [3] and in the data set with RAW264.7 [4] was Active.
Regarding `C=C1CC[C@H]2C(C)(C)CCC[C@]2(C)[C@H]1C/C=C(/C=O)CC(=O)OCc1cn(CCN2C(=O)C(=O)c3cc(Cl)ccc32)nn1`, the Activity result in the data set on RAW264.7 [1] is listed as “Non-Toxic”. Also, the result with RAW264.7 [2] and in the data set on RAW264.7 [3] was Active. In addition, the outcome with RAW264.7 [4] was inactive.
On to `C=C1CC[C@H]2C(C)(C)CCC[C@]2(C)[C@H]1C/C=C(/C=O)CC(=O)OCc1cn(CCCCN2C(=O)C(=O)c3cc(F)ccc32)nn1`, for which, in the data set on RAW264.7 [1], the Activity entry is given as “Non-Toxic”. Also, the result with RAW264.7 [2] and in the data set with RAW264.7 [3] was Active.
Consider `C=C1CC[C@H]2C(C)(C)CCC[C@]2(C)[C@H]1C/C=C(\CC(=O)OCc1cn(CCN2C(=O)C(=O)c3cc(OC)ccc32)nn1)C(=O)OCc1cn(CCN2C(=O)C(=O)c3cc(OC)ccc32)nn1`, for which the Activity result in the data set on RAW264.7 [1] is “Non-Toxic”. Besides, the result in the data set on RAW264.7 [2] and in the data set with RAW264.7 [3] was Active.
Take `C=C1CC[C@H]2C(C)(C)CCC[C@]2(C)[C@H]1C/C=C(/C=O)CC=O`: in the data set on RAW264.7 [1], the Activity entry is on record as “Non-Toxic”. In addition, the result in the data set on RAW264.7 [2] and in the data set with RAW264.7 [3] was Active.
In the case of `C=C1CC[C@H]2C(C)(C)CCC[C@]2(C)[C@H]1C/C=C(\CC(=O)OCc1cn(CCN2C(=O)C(=O)c3cc(I)ccc32)nn1)C(=O)OCc1cn(CCN2C(=O)C(=O)c3cc(I)ccc32)nn1`, the Activity result with RAW264.7 [1] is listed as “Non-Toxic”. Also, the outcome in the data set on RAW264.7 [2] and in the data set on RAW264.7 [3] was Active.
In the case of `C=C1CC[C@H]2C(C)(C)CCC[C@]2(C)[C@H]1C/C=C(\CC(=O)OCc1cn(CCN2C(=O)C(=O)c3cc(Br)ccc32)nn1)C(=O)OCc1cn(CCN2C(=O)C(=O)c3cc(Br)ccc32)nn1`, the Activity entry with RAW264.7 [1] is reported as “Non-Toxic”. Further, the outcome with RAW264.7 [2] and with RAW264.7 [3] was Active.
Regarding `C=C1CC[C@H]2C(C)(C)CCC[C@]2(C)[C@H]1C/C=C(/C=O)CC(=O)OCc1cn(CCCCN2C(=O)C(=O)c3cc(Br)ccc32)nn1`, in the data set on RAW264.7 [1], the Activity result is reported as “Non-Toxic”. Besides, the outcome in the data set with RAW264.7 [2] and with RAW264.7 [3] was Active.
On to `C=C1CC[C@H]2C(C)(C)CCC[C@]2(C)[C@H]1C/C=C(\CC(=O)OCc1cn(CCN2C(=O)C(=O)c3cc(C)ccc32)nn1)C(=O)OCc1cn(CCN2C(=O)C(=O)c3cc(C)ccc32)nn1`, for which, in the data set with RAW264.7 [1], the Activity result was “Non-Toxic”. The result in the data set with RAW264.7 [2] and in the data set with RAW264.7 [3] was Active.
